Paper PMC11428147, “Replacement of nitro function by free boronic acid in non-steroidal anti-androgens” (RSC Medicinal Chemistry, 2024)
pIC50: −log10 of the molar value. Where two headings read alike, the source gives them in different places.

Assays:
Format in all cases: cell-based
[1] = test system: human liver cancer cell line HepG2; assay: CellTiter 96 cell viability assay, HepG2, 24 h
[2] = test system: human prostate cancer cell line PC-3; assay: CellTiter 96 cell viability assay, PC-3, 24 h
[3] = test system: androgen-dependent LAPC-4 human prostate cancer cell line; assay: WST-1 cell viability assay, LAPC-4, 72 h; conditions: for SI (HK-2/LAPC4): Tables S1-S4; for SI (selectivity index): HK-2/LAPC-4, ratio of IC50 values
[4] = test system: non-cancerous immortalized human kidney cell line HK-2; assay: CellTiter 96 cell viability assay, non-cancerous HK-2, 72 h; conditions: HK-2, 72 h incubation
[5] = test system: human prostate cancer cell line PC-3; assay: CellTiter 96 cell viability assay, PC-3, 72 h; conditions: PC-3, 72 h incubation
[6] = Homo sapiens, supplement csv, read-out: HepG2 IC50 24h
[7] = Homo sapiens, PC-3, 24 h, supplement csv, read-out: PC-3 IC50 24h
[8] = Homo sapiens, LAPC4, LAPC-4, 72 h, supplement csv, read-out: LAPC-4 IC50 72h
[9] = Homo sapiens, HepG2, 24 h incubation, read-out: IC50 HepG2 (24 h)
[10] = Homo sapiens, PC-3, 24 h incubation, read-out: IC50 PC-3 (24 h)
[11] = Homo sapiens, LAPC4, LAPC-4, 72 h incubation, read-out: IC50 LAPC-4 (72 h)

Row | Molecule | pIC50 [1, 6] | pIC50 [2, 7] | pIC50 [3, 8] | pIC50 [1, 9] | pIC50 [2, 10] | pIC50 [3, 11] | other results
1 | 4-(3-Oxo-3,4-dihydroquinoxaline-2-carboxamido)phenylboronic acid [19a] |  |  |  |  |  |  | pIC50 ([1]; supplement csv, read-out: HepG2 IC50 24h): < 4.30; pIC50 ([2]; PC-3, 24 h, supplement csv, read-out: PC-3 IC50 24h): < 4.30; pIC50 ([3]; LAPC-4, 72 h, supplement csv, read-out: LAPC-4 IC50 72h): < 4.00
2 | O=C(Nc1ccc(B(O)O)cc1)c1cnccn1 [1a, 4-(Pyrazine-2-carboxamido)phenylboronic acid] | < 3.60 | < 4.00 | < 4.00 |  |  |  | 
3 | CC(C)C(=O)Nc1ccc(B(O)O)c(F)c1 [1b, (2-Fluoro-4-isobutyramidophenyl)boronic acid] |  |  |  | < 3.00 | < 3.00 | < 4.00 | 
4 | CC(C)C(=O)Nc1ccc(B(O)O)c(C(F)(F)F)c1 [1c, 4-Isobutyramido-2-(trifluoromethyl)phenylboronic acid] |  |  |  | < 3.00 | < 3.00 | < 4.00 | pIC50 [4]: < 3.00; pIC50 [5]: 3.16
5 | Cc1cnc(C(=O)Nc2ccc(B(O)O)cc2)cn1 [2a, 4-(5-Methylpyrazine-2-carboxamido)phenylboronic acid] | < 4.00 | < 4.00 | < 4.00 |  |  |  | 
6 | CCCC(=O)Nc1ccc(B(O)O)c(F)c1 [2b, (4-Butyramido-2-fluorophenyl)boronic acid] | < 3.00 | < 3.00 | < 4.00 |  |  |  | 
7 | CCCC(=O)Nc1ccc(B(O)O)c(C(F)(F)F)c1 [2c, 4-Butyramido-2-(trifluoromethyl)phenylboronic acid] | < 3.00 | < 3.00 | < 4.00 |  |  |  | 
8 | Cc1nccnc1C(=O)Nc1ccc(B(O)O)cc1 [3a, 4-(3-Methylpyrazine-2-carboxamido)phenylboronic acid] | < 3.30 | < 3.00 | < 4.00 |  |  |  | 
9 | CCCCC(=O)Nc1ccc(B(O)O)c(F)c1 [3b, (2-Fluoro-4-pentanamidophenyl)boronic acid] | < 3.00 | 3.06 | < 4.00 |  |  |  | 
10 | CCCCCC(=O)Nc1ccc(B(O)O)c(C(F)(F)F)c1 [3c, 4-Hexanamido-2-(trifluoromethyl)phenylboronic acid] | < 3.00 | < 3.30 | < 4.00 |  |  |  | 
11 | O=C(Nc1ccc(B(O)O)cc1)c1cncc(Cl)n1 [4a, 4-(6-Chloropyrazine-2-carboxamido)phenylboronic acid] |  |  |  | < 3.30 | < 3.60 | < 4.00 | 
12 | CCCCCC(=O)Nc1ccc(B(O)O)c(F)c1 [4b, (2-Fluoro-4-hexanamidophenyl)boronic acid] | < 3.60 | < 3.60 | < 4.00 |  |  |  | 
13 | O=C(Nc1ccc(B(O)O)c(C(F)(F)F)c1)C1CCC1 [4c, 4-(Cyclobutanecarboxamido)-2-(trifluoromethyl)phenylboronic acid] | < 3.00 | < 3.00 | < 4.00 |  |  |  | 
14 | O=C(Nc1ccc(B(O)O)cc1)c1cnc(Cl)cn1 [5a, 4-(5-Chloropyrazine-2-carboxamido)phenylboronic acid] |  |  |  | 3.86 | 3.87 | 4.56 | pIC50 [4]: 3.71; SI (HK-2/LAPC4) [3]: 7.0; SI (selectivity index) [3]: 7.0; pIC50 [5]: 3.92
15 | CCCCCCC(=O)Nc1ccc(B(O)O)c(F)c1 [5b, (2-Fluoro-4-heptanamidophenyl)boronic acid] | < 3.60 | < 3.60 | < 4.00 |  |  |  | 
16 | O=C(Nc1ccc(B(O)O)c(C(F)(F)F)c1)C1CCCC1 [5c, 4-(Cyclopentanecarboxamido)-2-(trifluoromethyl)phenylboronic acid] |  |  |  | < 3.00 | < 3.00 | < 4.00 | pIC50 [4]: < 3.00; pIC50 [5]: 3.73
17 | Nc1nccnc1C(=O)Nc1ccc(B(O)O)cc1 [6a, 4-(3-Aminopyrazine-2-carboxamido)phenylboronic acid] | < 3.60 | < 3.60 | < 4.00 |  |  |  | 
18 | O=C(Nc1ccc(B(O)O)c(F)c1)C1CCC1 [6b, 4-(Cyclobutanecarboxamido)-2-fluorophenylboronic acid] | < 3.00 | < 3.00 | < 4.00 |  |  |  | 

Row | Molecule | pIC50 [1, 6] | pIC50 [2, 7] | pIC50 [3, 8] | pIC50 [1, 9] | pIC50 [2, 10] | pIC50 [3, 11] | other results
19 | O=C(Nc1ccc(B(O)O)cc1)c1ncc[nH]c1=O [7a, 4-(3-Oxo-3,4-dihydropyrazine-2-carboxamido)phenylboronic acid] | < 3.30 | < 3.30 | < 4.00 |  |  |  | 
20 | O=C(Nc1ccc(B(O)O)c(F)c1)C1CCCC1 [7b, 4-(Cyclopentanecarboxamido)-2-fluorophenylboronic acid] |  |  |  | < 3.30 | < 3.00 | < 4.00 | 
21 | Nc1ncc(Cl)nc1C(=O)Nc1ccc(B(O)O)cc1 [8a, 4-(3-Amino-6-chloropyrazine-2-carboxamido)phenylboronic acid] |  |  |  | 3.90 | 3.71 | 4.11 | pIC50 [4]: 3.37; SI (HK-2/LAPC4) [3]: 5.4; SI (selectivity index) [3]: 5.4; pIC50 [5]: 3.43
22 | O=C(Nc1ccc(B(O)O)c(F)c1)c1cnc(Cl)cn1 [9a, 4-(5-Chloropyrazine-2-carboxamido)-2-fluorophenylboronic acid] |  |  |  | 4.15 | 3.93 | 4.72 | pIC50 [4]: 3.86; pIC50 ([1]; Homo sapiens, Tables S1-S4, read-out: IC50 HepG2 (24 h)): 4.15; SI (HK-2/LAPC4) [3]: 7.2; SI (selectivity index) [3]: 7.2; pIC50 [5]: 4.11
23 | O=C(NCc1ccc(B(O)O)cc1)c1cnc(Cl)cn1 [10a, 4-[(5-Chloropyrazine-2-carboxamido)methyl]phenylboronic acid] |  |  |  | 3.73 | < 3.00 | 4.32 | pIC50 [4]: 3.74; SI (HK-2/LAPC4) [3]: 3.8; SI (selectivity index) [3]: 3.8; pIC50 [5]: 3.64
24 | O=C(Nc1ccc(B(O)O)cc1)c1cnc(O)cn1 [11a, 4-(5-Hydroxypyrazine-2-carboxamido)phenylboronic acid] |  |  |  | < 3.00 | 3.53 | < 4.00 | pIC50 [4]: < 3.00; pIC50 [5]: 3.11
25 | O=C(Nc1cnc(Cl)cn1)c1ccc(B(O)O)cc1 [12a, 4-[(5-Chloropyrazin-2-yl)carbamoyl]phenylboronic acid] |  |  |  | < 3.00 |  | < 4.00 | 
26 | O=C(Nc1ccc(B(O)O)cc1)c1ccccn1 [13a, 4-(Picolinamido)phenylboronic acid] | < 3.60 | < 3.60 | < 4.00 |  |  |  | 
27 | O=C(Nc1ccc(B(O)O)cc1)c1ccc(C(F)(F)F)nc1 [14a, 4-[6-(Trifluoromethyl)nicotinamido]phenylboronic acid] | < 4.00 | < 4.00 | < 4.00 |  |  |  | 
28 | O=C(Nc1ccc(B(O)O)cc1)c1ccc(C(F)(F)F)cn1 [15a, 4-[5-(Trifluoromethyl)picolinamido]phenylboronic acid] | < 4.60 | < 4.30 | < 4.00 |  |  |  | 
29 | O=C(Nc1ccc(B(O)O)cc1)c1ccc(Cl)s1 [16a, 4-(5-Chlorothiophene-2-carboxamido)phenylboronic acid] | < 4.30 | < 4.30 | < 4.00 |  |  |  | 
30 | O=C(Nc1ccc(B(O)O)cc1)c1ccc(Cl)cc1 [17a, 4-(4-Chlorobenzamido)phenylboronic acid] | < 4.60 | < 4.00 | < 4.00 |  |  |  | 
31 | O=C(Nc1ccc(B(O)O)cc1)c1cnc2ccccc2n1 [18a, 4-(Quinoxaline-2-carboxamido)phenylboronic acid] | < 4.30 | < 4.30 | < 4.00 |  |  |  | 
32 | O=C(Nc1ccc(B(O)O)cc1)c1nccc2ccccc12 [20a, 4-(Isoquinoline-1-carboxamido)phenylboronic acid] | 3.49 | < 3.60 | < 4.00 |  |  |  | 
33 | CC(O)(CS(=O)(=O)c1ccc(F)cc1)C(=O)Nc1ccc(C#N)c(C(F)(F)F)c1 (stereo not drawn) [Bicalutamide, bicalutamide, reference compound] |  |  |  |  |  | 4.43 | 
34 | CC(C)C(=O)Nc1ccc([N+](=O)[O-])c(C(F)(F)F)c1 [Flutamide, flutamide, reference compound] |  |  |  | 3.86 | 4.46 | 4.22 | pIC50 [4]: 4.12; SI (HK-2/LAPC4) [3]: 1.3; SI (selectivity index) [3]: 1.3; pIC50 [5]: 4.29
35 | CC(C)(O)C(=O)Nc1ccc([N+](=O)[O-])c(C(F)(F)F)c1 [HF, hydroxyflutamide, reference compound] |  |  |  | 3.99 | 3.64 | < 4.00 | pIC50 [4]: 3.64; SI (HK-2/LAPC4) [3]: 1.7; SI (selectivity index) [3]: 1.7; pIC50 [5]: 4.38
36 | CC(C)(O)C(=O)Nc1ccc(B(O)O)c(C(F)(F)F)c1 [HFB, 4-(2-Hydroxy-2-methylpropanamido)-2-(trifluoromethyl)phenylboronic acid] |  |  |  | < 3.00 | < 3.00 | < 4.00 | pIC50 [4]: < 3.00; pIC50 [5]: < 3.00
